Data as given in patent US20110059909A1, “METHODS FOR TREATING INFLAMMATORY DISORDERS” (priority 2004, published 2011).
Blank lines part the entries; values can stand above or below the molecule they belong to.

Assays:
ERK1/2 = ERK1/2 activation (phospho-ERK1/2 immunoblot) in primary astrocytes; assay type: cell-based, rat; conditions: pretreated 0.5 h, TNFα 20 min
Description: (§1) For iNOS protein, the cells were washed with cold Tris buffered saline (TBS; 20 mM Trizma base, and 137 mM NaCl, pH 7.5), lysed in 1×SDS sample loading buffer (62.5 mM Trizma base, 2% w/v SDS, 10% glycerol), following sonication and centrifugation at 15,000×g for 5 min, the supernatant was used for the iNOS western immunoblot assay. The protein concentration of samples was determined with the detergent compatible protein assay reagent (Bio-Rad Laboratories, CA) using bovine serum albumin (BSA) as the standard. Sample was boiled for 3 min with 0.1 volumes of 10% β-mercaptoethanol and 0.5% bromophenol blue mix. Fifty μg of total cellular protein was resolved by electrophoresis on 8 or 12% polyacrylamide gels, electro-transferred to polyvinylidene difluoride (PVDF) filter and blocked with Tween 20 containing Tris-buffered saline (TBST; 10 mM Trizma base-pH 7.4, 1% Tween 20, and 150 mM NaCl) with 5% skim milk. After incubation with antiserum against iNOS (BD PharMingen, CA), rat GalT-2 (Abjent Inc., CA), H-Ras (Upstate Biotechnology, CA), GFAP (Santa Cruz Biotech, CA), or phospho-specific ERK1/2 (Cell signaling Tech Inc., MA), or pIκ-B (Signal Transduction), in PVDF buffer for 2 h at room temperature, the filters were washed 3 times with TBST buffer and then incubated with horseradish peroxidase conjugated anti-rabbit or mouse IgG for 1 h. The membranes were detected by autoradiography using ECL-plus (Amersham Pharmacia Biotech) after washing with TBST buffer.

rat primary astrocytes [1] = test: BrdU incorporation assay, proliferation of primary astrocytes; assay type: cell-based; conditions: for Proliferation of astrocytes induced by the substance itself: increasing doses (1, 5 and 10 μM for GSL), 18 h
Description: (§2) Primary astrocyte-enriched cultures were prepared from the whole cortex of one day old Sprague-Dawley rats as described earlier (Pahan et al., 1998b). Briefly, the cortex was rapidly dissected in ice-cold calcium/magnesium free Hanks Balanced Salt Solution (HBSS) (Gibco, Grand Island, N.Y.) at pH 7.4 as described previously (Won et al., 2001). The tissue was then minced, incubated in HBSS containing trypsin (2 mg/ml) for 20 min and washed twice in plating medium containing 10% FBS and 10 μg/ml gentamicin, and then disrupted by triturating through a Pasteur pipette following which cells were seeded in 75-cm^2 culture flasks (Falcon, Franklin, N.J.). After incubation at 37° C. in 5% CO2 for 1 day, the medium was completely changed to the culture medium (DMEM containing 5% FBS and 10 μg/ml gentamicin). The cultures received half exchanges with fresh medium twice a week. After 14-15 days the cells were shaken for at least 24 h on an orbital shaker to remove the microglia and then seeded on multi-well tissue culture dishes. The cells were incubated with serum-free DMEM for 24 h prior to the incubation with drugs.
Proliferation of primary astrocytes was assayed by using the Cell proliferation ELISA, BrdU colorimetric assay kit (Roche, Germany) according to manufacturer's protocol. Briefly, cells were seeded in 96 well plates in quadruplicate and following overnight serum starvation were stimulated with mitogenic stimulants. 2 h before termination of proliferation assay, BrdU (10 μM) was added to each well following which cells were fixed and levels of incorporated BrdU were assayed by using a conjugated anti-BrdU enzyme. Colorimetric analysis was done by measuring absorbance at 370 nm using a spectramax MAX 190 (Molecular devices) multi-well plate reading spectrophotometer.

iNOS = iNOS mRNA (RT-PCR) and protein (immunoblot) in LPS/IFNγ-stimulated primary astrocytes; assay type: cell-based, rat; conditions: primary astrocytes; LPS/IFNγ (1 μg/ml; 10 U/ml); mRNA 6 h, protein 24 h
Description: as §2, §1
5 μg total RNA was treated with 2 U DNAse I (bovine pancreas, Sigma) for 15 min at room temperature in 18 μl volume containing 1×PCR buffer and 2 mM MgCl2. It was then inactivated by incubation with 2 μl of 25 mM EDTA at 65° C. for 15 min. 2 μl of random primers were added and annealed to the RNA according to the manufacturer's protocol. cDNA was synthesized in a 50 μl reaction containing 5 μg of total RNA and 50-100 U reverse transcriptase by incubating the tubes at 42° C. for 60 min. PCR amplification was conducted in 25 μl of reaction mixture with 1.0 μl of cDNA, […] of each primer and under the manufacturer's Taq polymerase conditions (Takara, Takara Shuzo Co. Ltd, Japan). The sequence of primers used for PCR amplification are as follows; iNOS, (Forward-5′ […] 3′, SEQ ID NO:3; Reverse-5′ […] 3′, SEQ ID NO:4), GalT-2 (Forward-5′ tggtacaagctagaggc 3′, SEQ ID NO:5; Reverse-5′ gcatggcacattgaa C-3′, SEQ ID NO:6), GAPDH (Forward-5′ […] 3′, SEQ ID NO:7; Reverse-5′ cttcacgaagttgtcattgagggca3′, SEQ ID NO:8), TNFα (Forward-5′ […] g-3′, SEQ ID NO:9; Reverse-5′[…]-3′, SEQ ID NO:10) and IL-1β (Forward-5′[…]-3′, SEQ ID NO:11; reverse-5′[…]-3′, SEQ ID NO:12).

GFAP = GFAP mRNA (real time PCR) and protein (immunoblot) in TNFα-stimulated primary astrocytes; assay type: cell-based, rat
Description: as §1

rat primary astrocytes [2] = test: Assay for NO production (nitrite, Griess reagent) in LPS/IFNγ-stimulated primary astrocytes; assay type: cell-based; conditions: for LPS/IFNγ-induced NO production: primary astrocytes, LPS/IFNγ (1 μg/ml; 10 U/ml), NO at 24 h; for Reversal of PDMP-mediated inhibition of LPS/IFNγ-induced NO production: PDMP 50 μM plus exogenous glycosphingolipid 5 and 10 μM, 0.5 h before LPS/IFNγ
Description: as §2
Cells were cultured in 12-well plastic tissue culture plates. Following appropriate treatment, production of NO was determined by an assay of the culture supernatant for nitrite (Green et al., 1982). Briefly, 100 μl of culture supernatant was allowed to react with 100 μl of Griess reagent. The optical density of the assay samples was measured spectrophotometrically at 570 nm. Nitrite concentrations were calculated from a standard curve derived from the reaction of NaNO2 in fresh media.

[3] = cited from earlier work
small GTPase Ras = test: Quantification of Ras activation (GST-Raf-1 RBD pull-down) in primary astrocytes; assay type: cell-based, rat; conditions: for LacCer-mediated Ras activation: NAC 10 mM or PDTC 100 μM 1 h, LacCer 5 min
Description: After stimulation, primary astrocytes in 6-well plates were washed with ice cold PBS and lysed in membrane lysis buffer (MLB; 0.5 ml of 25 mM HEPES, pH 7.5, 150 mM NaCl, 1% Igepal CA-630, 0.25% sodium deoxycholate, 10% glycerol, 10 mM MgCl2, 1 mM EDTA, 25 mM NaF, 1 mM of sodium orthovanadate, and EDTA free Complete™ protease inhibitor cocktail). After centrifugation (5,000×g) at 4° C. for 5 min, supernatant was used for Ras activation assay. One hundred μg of supernatant was used for binding with agarose conjugated Ras-binding domain (RBD) of Raf-1 which was expressed in BL21 (Invitrogen), Escherichia coli strain, transformed by pGEX-2T-GST-RBD in the presence of 0.1 mM of IPTG as described previously (Herrmann et al., 1995). The binding reaction was performed at 4° C. for 30 min in MLB. Following washing with MLB three times, Ras-RBD complex were denatured by adding of 2×SDS sample buffer. Ras protein was identified by western blot analysis with Ras antibodies from Upstate Biotechnology.

PI-3K = test: PI-3 kinase activity assay; assay type: cell-based, rat; conditions: exogenous lipid
Description: Cells after stimulation in serum-free DMEM/F-12 were lysed with ice-cold lysis buffer containing 1% (vol/vol) NP-40,100 mM NaCl, 20 mM Tris (pH 7.4), 10 mM iodoacetamide, 10 mM NaF, 1 mM sodium orthovanadate, 1 mM […], 1 μg/ml leupeptin, 1 μg/ml antipain, 1 mg/ml aprotinin, and 1 μg/ml pepstatin A. Lysates were incubated at 4° C. for 15 min, followed by centrifugation at 13,000 g for 15 min. The supernatant was pre-cleared with protein G-Sepharose beads (Pharmacia Biotech) for 1 h at 4° C. followed by the addition of 1 μg/ml p85α monoclonal antibody. After 2 h of incubation at 4° C., protein G-Sepharose beads were added and the resulting mixture was further incubated for 1 h at 4° C. The immunoprecipitates were washed twice with lysis buffer, once with phosphate-buffered saline (PBS), once with 0.5 M LiCl and 100 mM Tris (pH 7.6), once in water, and once in kinase buffer (5 mM MgCl2, 0.25 mM EDTA, 20 mM HEPES, pH 7.4). PI-3kinase activity was determined as already described (Ward et al., 1992; Pahan et al., 1999) using a lipid mixture of 100 μl of 0.1 mg/ml PI and 0.1 mg/ml phosphatidylserine dispersed by sonication in 20 mM HEPES (pH 7.0) and 1 mM EDTA. The reaction was initiated by the addition of 20 of [γ-32P] […]

Molecule: COc1cccc(-c2cc(=O)c3ccccc3o2)c1N [PD98059]
- TNFα-induced ERK1/2 phosphorylation (ERK1/2): inhibited
- TNFα-induced astrocyte proliferation (rat primary astrocytes [1]; pretreated 0.5 h (AS: 48 h after transfection), TNFα 1 ng/ml 18 h, BrdU incorporation): inhibited
- LPS/IFNγ-induced iNOS mRNA and protein levels (iNOS): inhibition
- TNFα-induced GFAP mRNA and protein expression (GFAP; TNFα 1 ng/ml, mRNA 8 h, protein 18 h): inhibited
- LPS/IFNγ-induced NO production (rat primary astrocytes [2]): inhibition

Molecule: CCCCN1CC(O)C(O)C(O)C1CO [Miglustat, 1,5-(butylimino)-1,5-dideoxy-D-glucitol]
- Solubility in water [3]: soluble in water

- LacCer-mediated Ras activation (small GTPase Ras): inhibited
Molecule: S=C(S)N1CCCC1 [PDTC, pyrrolidine dithiocarbamate]
- LPS/IFNγ-induced iNOS mRNA and protein levels (iNOS): blocked
- LPS/IFNγ-induced NO production (rat primary astrocytes [2]): blocked

Molecule: Glucosylceramide [GluCer]
- Proliferation of astrocytes induced by the substance itself (rat primary astrocytes [1]; BrdU incorporation): did not have a similar effect
- Reversal of PDMP-mediated inhibition of LPS/IFNγ-induced NO production (rat primary astrocytes [2]): did not reverse

- Reversal of DMS-mediated inhibition of PI-3K activation (PI-3K): able to reverse
- Reversal of DMS-mediated inhibition of Ras activation (small GTPase Ras; exogenous lipid): reverses
Molecule: CCCCCCCCCCCCC/C=C/[C@@H](O)[C@@H](N)COP(=O)(O)O [S1P, sphingosine-1-phosphate]
- Reversal of PDMP-mediated inhibition of TNFα-induced proliferation (rat primary astrocytes [1]; PDMP 25 μM plus exogenous lipid): could not be reversed
- Reversal of DMS-mediated inhibition of TNFα-induced proliferation (rat primary astrocytes [1]; exogenous lipid): reversed
- Reversal of PD98059-mediated inhibition of TNFα-induced proliferation (rat primary astrocytes [1]; exogenous lipid): could not be reversed
- Proliferation of astrocytes induced by the substance itself (rat primary astrocytes [1]; BrdU incorporation): induced astrocyte proliferation
- Reversal of DMS-mediated inhibition of TNFα-induced GFAP expression (GFAP; exogenous lipid): reversed

- LacCer-mediated Ras activation (small GTPase Ras): inhibited
Molecule: CC(=O)N[C@@H](CS)C(=O)O [NAC, N-Acetyl cysteine]
- LPS/IFNγ-induced iNOS mRNA and protein levels (iNOS): blocked
- LPS/IFNγ-induced NO production (rat primary astrocytes [2]): blocked

Molecule: galactosylceramide [GalCer]
- Proliferation of astrocytes induced by the substance itself (rat primary astrocytes [1]; BrdU incorporation): neither induced proliferation
- Reversal of PDMP-mediated inhibition of LPS/IFNγ-induced NO production (rat primary astrocytes [2]): did not reverse
